In brackets after ≈: the same amount, converted by molar mass. Bounds are passed on as bounds.

The first assay addresses T1, Mannose-6-phosphate isomerase (Homo sapiens, UniProt P34949).
T1 sequence (P34949 whole entry): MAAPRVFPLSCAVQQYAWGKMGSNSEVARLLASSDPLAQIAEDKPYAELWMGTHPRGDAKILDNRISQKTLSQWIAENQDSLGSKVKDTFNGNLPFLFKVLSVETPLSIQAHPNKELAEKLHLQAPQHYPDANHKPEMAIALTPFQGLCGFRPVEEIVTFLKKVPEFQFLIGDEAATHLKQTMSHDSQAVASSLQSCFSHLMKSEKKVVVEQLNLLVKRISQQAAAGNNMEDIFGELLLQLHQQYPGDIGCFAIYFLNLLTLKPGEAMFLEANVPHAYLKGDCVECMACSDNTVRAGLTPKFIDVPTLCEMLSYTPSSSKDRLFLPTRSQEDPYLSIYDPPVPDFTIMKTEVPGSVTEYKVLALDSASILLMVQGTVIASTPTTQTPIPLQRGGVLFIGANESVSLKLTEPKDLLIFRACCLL
Description: Compound was tested for inhibition of human phosphomannose isomerase (PMI).
Broadly, the IC50 is the concentration that inhibits the measured activity by half. A lower IC50 goes with higher potency. In the case of `O=CC(O)C(O)COP(=O)(O)O` (centres undefined), the IC50 amounted to 100 µM.

Another assay relates to Saccharomyces cerevisiae. Description: Compound was evaluated for the minimum inhibitory concentration against Saccharomyces cerevisiae. It counts as functional.
The term MIC denotes the lowest concentration that inhibits growth of the organism. As to `O=C(CCCSc1ccc(Cl)c(Cl)c1)NC1(C(=O)NO)Cc2ccccc2C1`, inhibition of growth (MIC) required 80 µM (≈ 35.1 µg/mL).

A further assay concerns Candida albicans. Nature of the assay: Compound was evaluated for the minimum inhibitory concentration against Candida albicans. It counts as functional.
In the case of `O=C(CCCSc1ccc(Cl)c(Cl)c1)NC1(C(=O)NO)Cc2ccccc2C1`, the minimal inhibitory concentration (MIC) is 100 µM (≈ 43.9 µg/mL).

Another assay has as its target T2, Mannose-6-phosphate isomerase (Candida albicans (strain SC5314 / ATCC MYA-2876) (Yeast), UniProt P34948).
T2 sequence (P34948 whole entry): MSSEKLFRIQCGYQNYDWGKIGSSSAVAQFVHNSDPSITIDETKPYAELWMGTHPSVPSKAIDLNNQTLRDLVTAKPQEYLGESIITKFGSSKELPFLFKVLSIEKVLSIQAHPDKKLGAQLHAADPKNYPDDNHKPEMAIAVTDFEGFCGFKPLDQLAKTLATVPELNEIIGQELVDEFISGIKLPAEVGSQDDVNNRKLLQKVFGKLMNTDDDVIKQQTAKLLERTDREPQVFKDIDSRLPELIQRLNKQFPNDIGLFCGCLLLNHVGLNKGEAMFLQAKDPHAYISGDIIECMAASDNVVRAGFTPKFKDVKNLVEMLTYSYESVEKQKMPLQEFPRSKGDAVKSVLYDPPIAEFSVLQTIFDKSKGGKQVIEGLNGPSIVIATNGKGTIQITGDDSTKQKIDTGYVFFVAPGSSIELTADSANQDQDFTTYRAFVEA
Description: Inhibition of phosphomannose isomerase enzyme of Candida albicans (CaPMI).
As to `COC(=O)c1ccc2c(c1)CC(NC(=O)CCCOc1ccc(Cl)c(Cl)c1)(C(=O)OC)C2` (centres undefined), the IC50 was over 200 µM.
On the same count and under the same terms, in the case of `NNC(=O)C1(NC(=O)CCCOc2ccc(Cl)cc2Cl)Cc2ccccc2C1` it was 40 µM.
`NC(=O)C1(NC(=O)CCCOc2ccc(Cl)cc2Cl)CCCC1` returned an IC50 of over 200 µM.
On to `O=C(CCCOc1ccc(Cl)cc1Cl)NC1(CO)Cc2ccccc2C1`, for which the IC50 was found to be 140 µM.
Still for that read-out and setting: in the case of `O=C(CCCOc1ccc(Cl)cc1Cl)NC1Cc2ccccc2C1` it was over 200 µM; in that of `NC(=O)C1(NC(=O)CCCOc2ccc(Cl)cc2Cl)CCc2ccccc21` (centres undefined), over 200 µM; in that of `NC(=O)C1(NC(=O)CCCSc2ccc(Cl)c(Cl)c2)Cc2ccccc2C1`, 6 µM.
Consider `NC(=O)C1(NC(=O)CCCOc2ccc(Cl)cc2Cl)CCc2ccccc2C1` (centres undefined), for which half-maximal inhibition (IC50) was put at 93 µM.
As to `O=C(CCCOc1ccc(Cl)cc1Cl)NC1(C(=O)NO)Cc2ccccc2C1`, the IC50 came out at 39 µM.
On the same count and under the same terms, the value for `O=C(CCCOc1ccc(Cl)cc1Cl)NC1(C(=O)O)Cc2ccccc2C1` was over 500 µM.
For the compound `Cc1cc(OCCCC(=O)NC2(C(N)=O)Cc3ccccc3C2)ccc1Cl`, the IC50 was 50 µM.
The same measure, in the same setting: in the case of `CC(Cc1ccccc1)(NC(=O)CCCOc1ccc(Cl)cc1Cl)C(N)=O` (centres undefined) it was over 200 µM.
`NC(=O)C1(NC(=O)CCCNc2ccc(Cl)cc2Cl)Cc2ccccc2C1` showed an IC50 of 50 µM.
The same measure, in the same setting: the value for `COC(=O)C1(NC(=O)CCCOc2ccc(Cl)c(Cl)c2)Cc2cc3ccccc3cc2C1` was over 200 µM.
Same read-out and setting: in the case of `CNC(=O)C1(NC(=O)CCCOc2ccc(Cl)cc2Cl)Cc2ccccc2C1` it was 34 µM; in that of `NC(=O)C1(NC(=O)CCCNc2ccc(Cl)c(Cl)c2)Cc2ccccc2C1`, 21 µM; in that of `NC(=O)C1(NC(=O)CCCOc2ccc(Cl)c(Cl)c2)Cc2ccccc2C1`, 15 µM.
Still for that read-out and setting: in the case of `COC(=O)C1(NC(=O)CCCOc2ccc(Cl)cc2Cl)Cc2ccccc2C1` it was 34 µM; in that of `COC(=O)C1(NC(=O)CCCOc2ccc(Cl)c(Cl)c2)Cc2ccc3ccccc3c2C1` (centres undefined), over 200 µM.
With `NC(=O)C1Cc2ccccc2CN1C(=O)CCCOc1ccc(Cl)cc1Cl` (centres undefined), the IC50 is over 200 µM.
Regarding `NC(=O)C1(NC(=O)CCCOc2cc(Cl)c(Cl)cc2Cl)Cc2ccccc2C1`, the IC50 stood at 30 µM.
The compound `NC(=O)C1(NC(=O)CCCSc2ccc(Cl)cc2Cl)Cc2ccccc2C1` returned an IC50 of 14 µM.

Another assay addresses T1, Mannose-6-phosphate isomerase. Nature of the assay: Compound was evaluated for the inhibition constant against human phosphomannose isomerase (huPMI).
One may read the Ki as a dissociation constant, usually derived from enzyme kinetics or from competition with a known ligand. Read a low Ki as a stronger hold on the target. In turn, `O=C(CCCSc1ccc(Cl)c(Cl)c1)NC1(C(=O)NO)Cc2ccccc2C1` gave a Ki of 26 µM.

In another assay the target is Mannose-6-phosphate isomerase (Saccharomyces cerevisiae) (UniProt P29952). Nature of the assay: Compound was evaluated for the inhibition of yeast phosphomannose isomerase (PMI) at a concentration of 300 uM; inactive.
Chain of Mannose-6-phosphate isomerase (Saccharomyces cerevisiae) (P29952 whole entry, looked up): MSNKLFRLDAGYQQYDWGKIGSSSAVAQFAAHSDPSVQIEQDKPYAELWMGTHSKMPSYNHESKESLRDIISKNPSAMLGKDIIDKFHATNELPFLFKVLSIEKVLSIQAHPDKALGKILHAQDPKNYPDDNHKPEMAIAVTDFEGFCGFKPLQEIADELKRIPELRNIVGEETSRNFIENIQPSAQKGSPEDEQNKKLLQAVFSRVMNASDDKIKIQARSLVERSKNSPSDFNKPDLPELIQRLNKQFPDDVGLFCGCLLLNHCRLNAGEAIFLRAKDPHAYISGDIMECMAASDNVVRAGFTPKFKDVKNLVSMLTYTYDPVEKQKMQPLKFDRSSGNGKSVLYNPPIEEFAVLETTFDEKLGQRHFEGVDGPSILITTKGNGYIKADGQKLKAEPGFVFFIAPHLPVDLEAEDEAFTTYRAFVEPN
Regarding `O=C(CCCOc1ccc(Cl)cc1Cl)NC1(C(=O)NO)CCc2ccccc21` (centres undefined), the IC50 entry is “Not Active”.

Target in the next assay: not listed separately
Description: Compound was tested for inhibition of porcine phosphomannose isomerase (PMI). Details: species or system Sus scrofa; call rule not given here.
Regarding `O=CC(O)C(O)COP(=O)(O)O` (centres undefined), the IC50 was 100 µM.

For a further assay, the system named is Saccharomyces cerevisiae. Description: Compound was evaluated for the minimum inhibitory concentration against Invsc 1, a wild type strain of Saccharomyces cerevisiae. Format: functional.
`O=C(CCCSc1ccc(Cl)c(Cl)c1)NC1(C(=O)NO)Cc2ccccc2C1` came in with an MIC of 100 µM (≈ 43.9 µg/mL).

The values above are taken from ChEMBL document CHEMBL1130944, “Exploring structure-activity relationships around the phosphomannose isomerase inhibitor AF14049 via combinatorial synthesis” (Bioorg Med Chem Lett, 1998).
